Assay results taken from patent US9688596B2, “Synthesis and biological activity of 2-methylene analogs of calcitriol and related compounds” (Wisconsin Alumni Research Foundation, priority 2015, dated 2017).
“Also recorded” adds a separate entry of the source.

Tests used:
[1] = target: T1, full-length recombinant rat vitamin D receptor (Rattus norvegicus, UniProt P13053); test: Competitive binding to the vitamin D receptor; settings: for VDR Binding Ki Ratio: average ratio of the 1α,25-(OH)2D3 Ki to the Ki for the analogue, radiolabeled 1α,25-(OH)2D3 at 1 nM, Kd 0.2 nM; for VDR binding ability (in words): comparator (1 or 3)
T1 sequence (P13053 1-423): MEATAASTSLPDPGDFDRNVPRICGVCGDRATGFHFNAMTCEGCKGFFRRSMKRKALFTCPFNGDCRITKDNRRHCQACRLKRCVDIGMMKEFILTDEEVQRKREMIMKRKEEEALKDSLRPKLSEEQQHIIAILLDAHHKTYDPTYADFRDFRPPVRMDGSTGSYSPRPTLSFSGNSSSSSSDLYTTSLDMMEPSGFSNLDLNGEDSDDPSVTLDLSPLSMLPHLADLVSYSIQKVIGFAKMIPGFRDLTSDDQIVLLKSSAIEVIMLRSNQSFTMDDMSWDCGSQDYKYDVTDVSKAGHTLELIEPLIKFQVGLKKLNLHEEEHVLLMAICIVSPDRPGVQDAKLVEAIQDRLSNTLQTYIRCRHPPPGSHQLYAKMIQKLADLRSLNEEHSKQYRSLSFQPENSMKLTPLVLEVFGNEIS
Description: In the first competitive binding assay, the affinity of vitamins to the full-length recombinant rat receptor was evaluated and compared to 1α,25-(OH)2D3 (1) and 2MD (3).
The Ki values are derived from the dose-response curves and represent the inhibition constant when radiolabeled 1α,25-(OH)2D3 is present at 1 nM and a Kd of 0.2 nM is used. The numbers shown in the Table are expressed as the average ratio of the 1α,25-(OH)2D3 Ki to the Ki for the analogue. ^bInduction of differentiation of HL-60 promyelocytes to monocytes by 1α,25-(OH)2D3 (1) and the synthesized vitamin D analogues. Differentiation state was determined by measuring the percentage of cells reducing nitro blue tetrazolium (NBT). The experiment was repeated in duplicate two times. […] The numbers shown in the Table are expressed as the average ratio of the 1α,25-(OH)2D3 ED50 to the ED50 for the analogue. ^cTranscriptional assay in rat osteosarcoma cells stably transfected with a 24-hydroxylase gene reporter plasmid. […] The numbers shown in the Table are expressed as the average ratio of the 1α,25-(OH)2D3 ED50 to the ED50 for the analogue.

[2] = tested on: human promyelocytic HL-60 cells; test: HL-60 differentiation (NBT reduction); type: cell-based; settings: for HL-60 differentiation ED50 Ratio: average ratio of the 1α,25-(OH)2D3 ED50 to the ED50 for the analogue, 50% maturation, NBT reduction; for ability to elicit differentiation of HL-60 cells into monocytes (in words): comparator (2MD)
[3] = Intestinal calcium transport (everted gut sac); type: in vivo, rat; settings: rats, four consecutive intraperitoneal doses
Description: (§1) Male, weanling Sprague-Dawley rats were purchased from Harlan (Indianapolis, Ind.). The animals were group housed and placed on Diet 11 (0.47% Ca)+AEK oil for one week followed by Diet 11 (0.02% Ca)+AEK oil for 3 weeks. The rats were then switched to a diet containing 0.47% Ca^xxiii for one week followed by two weeks on a diet containing 0.02% Ca. Dose administration began during the last week on 0.02% Ca diet. Four consecutive intraperitoneal doses were given approximately 24 hours apart. Twenty four hours after the last dose, blood was collected from the severed neck and the concentration of serum calcium determined as a measure of bone calcium mobilization. The first 10 cm of the intestine was also collected for the intestinal calcium transport analysis using the everted gut sac method.^25

[4] = tested on: 24-hydroxylase (CYP-24) promoter; test: 24-hydroxylase transcription (luciferase reporter in rat osteosarcoma cells); type: cell-based; settings: for 24OHase transcription ED50 Ratio: average ratio of the 1α,25-(OH)2D3 ED50 to the ED50 for the analogue, luciferase activity; for transcriptional potency (in words): compared with 1α,25-(OH)2D3 (1)
Text: The activity of the synthesized vitamins in inducing transcription of vitamin D target gene was examined using the 24-hydroxylase (CYP-24) promoter.

[5] = Bone calcium mobilization (serum calcium); type: in vivo, rat; settings: rats, four consecutive intraperitoneal doses
Description: as §1

[6] = cited from earlier work
bone formation = settings: cited from earlier work
[7] = clinical trial; cited from earlier work
[8] = ovariectomized (OVX) rat; cited from earlier work
[9] = compared with 1; cited from earlier work
[10] = earlier work; cited from earlier work
[11] = listed as 2-methylene calcitriol

Compound | VDR Binding Ki Ratio [1] | VDR binding ability (in words) [1] | HL-60 differentiation ED50 Ratio [2] | intestinal calcium transport activity (in words) [3] | intestinal calcium transport activity (in words) [3, 11] | 24OHase transcription ED50 Ratio [4] | transcriptional potency (in words) [4] | bone calcium mobilization / potency in raising serum calcium (in words) [5] | bone calcium mobilization / potency in raising serum calcium (in words) [5, 11] | activity in the intestine compared with 1 [6] | bone formation in vitro (bone formation) | bone turnover in postmenopausal women [7] | bone formation in OVX rat model [8] | activity in the bone tissue higher than 1 [9] | calcemic potency / in vivo calcemic activity [10] | ability to elicit differentiation of HL-60 cells into monocytes (in words) [2] | transcriptional activity decreased compared with 3 (2MD) ([4]; compared with 3) | affinity to the receptor, higher than natural hormone 1 ([1]; compared to 1α,25-(OH)2D3 (1))
C=C1/C(=C\C=C2/CCC[C@]3(C)[C@@H]([C@H](C)CCCC(C)(C)O)CC[C@@H]23)C[C@@H](O)C(=C)[C@@H]1O [Compound 8, 1α,25-dihydroxy-2-methylene-vitamin D3] | 1.4 | almost as effectively as the natural hormone 1 | 0.7 | Much higher potency on intestine; also recorded: considerably higher potency; also recorded: more potent than 1 and 3 | more active in intestine | 1 | same transcriptional potency as 1α,25-(OH)2D3 (1) | highest potency in raising serum calcium; also recorded: considerably higher potency | almost as active as 2MD in the bone |  |  |  |  |  |  |  |  | 
C=C1[C@H](O)CC(=C/C=C2\CCC[C@]3(C)[C@@H](C(C)CCCC(C)(C)O)CC[C@@H]23)C[C@H]1O (stereo partly drawn) [Compound 3, (20S)-1α,25-dihydroxy-2-methylene-19-nor vitamin D3] | 1 |  | 25 |  |  | 29 |  |  |  | similar | strongly stimulate bone formation | increase bone turnover | strongly stimulate bone formation | ca. 30 times |  |  |  | 
C=C1/C(=C\C=C2/CCC[C@]3(C)[C@@H]([C@H](C)CCCC(C)C)CC[C@@H]23)C[C@@H](O)C(=C)[C@@H]1O [Compound 10, 1α-hydroxy-2-methylene-vitamin D3] |  | decreased by two orders of magnitude | 0.07 |  |  |  | decreased by one order of magnitude | less active but still more calcemic than calcitriol; also recorded: Strong calcemic activity |  |  |  |  |  |  |  |  |  | 
C=C1/C(=C\C=C2/CCC[C@]3(C)[C@@H]([C@@H](C)CCCC(C)C)CC[C@@H]23)C[C@@H](O)C(=C)[C@@H]1O [Compound 11, (20S)-1α-hydroxy-2-methylene-vitamin D3] |  | decreased by two orders of magnitude | 0.7 |  |  |  | decreased by one order of magnitude | less active but still more calcemic than calcitriol; also recorded: Strong calcemic activity |  |  |  |  |  |  |  |  |  | 
C=C1[C@H](O)CC(=C/C=C2\CCC[C@]3(C)[C@@H]([C@H](C)CCCC(C)(C)O)CC[C@@H]23)C[C@H]1O [Compound 2, reference compound] | 1 |  | 1 |  |  | 1 |  |  |  |  |  |  |  |  | significantly increased calcemic potency |  |  | 
C=C1/C(=C\C=C2/CCC[C@]3(C)[C@@H]([C@@H](C)CCCC(C)(C)O)CC[C@@H]23)C[C@@H](O)C(=C)[C@@H]1O [Compound 9, (20S)-1α,25-dihydroxy-2-methylene-vitamin D3] | 1.1 | almost identical | 29 | Much higher potency on intestine; also recorded: more potent than 1 and 3 |  | 10 | most pronounced activity | highest potency in raising serum calcium; also recorded: slightly lower than that of 3; also recorded: ca. one order of magnitude higher compared to calcitriol |  |  |  |  |  |  |  | highest ability to elicit cellular differentiation; also recorded: almost identical | three | 
C=C1/C(=C/C=C2\CCC[C@]3(C)[C@@H]([C@H](C)CCCC(C)(C)O)CC[C@@H]23)C[C@@H](O)C(=C)[C@@H]1O [Compound 12, (5E)-1α,25-dihydroxy-2-methylene-vitamin D3] | 2.5 |  | 0.4 |  |  | 1 | same transcriptional potency as 1α,25-(OH)2D3 (1) | significantly decreased activity in bone |  |  |  |  |  |  |  |  |  | 2.5 fold
C=C1/C(=C/C=C2\CCC[C@]3(C)[C@@H]([C@@H](C)CCCC(C)(C)O)CC[C@@H]23)C[C@@H](O)C(=C)[C@@H]1O [Compound 13, (5E,20S)-1α,25-dihydroxy-2-methylene-vitamin D3] | 1.1 | almost identical | 20 |  |  | 5 | most pronounced activity | significantly decreased activity in bone |  |  |  |  |  |  |  | highest ability to elicit cellular differentiation; also recorded: almost identical |  | 
